{"source": "patent US20180318199A1", "about": "“Pharmaceutical Composition Having Anti-Aging Properties against High-Glucose” (TAIWAN LEADER BIOTECH CORP., priority 2017, published 2018)", "format_in_all_cases": "cell-based, human", "key": {"HNDFs": {"test_system": "HNDFs", "test": "Intracellular ROS by flow cytometry (DCFH-DA) in HNDFs", "settings": "24 h; for intracellular ROS generation: ANM 10 μM or NAC 100 μM + HG 30 mM, HG alone 426.2%; for ROS generation, compound alone: ANM 10 μM or NAC 100 μM without HG", "method": "Next, please refer to FIG. 4A˜FIG. 4H, which are views showing HG-induced senescence inhibited by ANM in HNDFs. As shown in the figures, it is examined whether ANM inhibits HG-induced ROS generation. In FIG. 4A, HNDFs are incubated with ANM (10 μM) or NAC (100 μM) either in the presence or absence of HG (30 mM) for 24 h. The intracellular ROS level is determined by flow cytometry using DCH-DA flurogenic probe. […] As is shown, HNDFs are co-incubated with HG and ANM or NAC for 24 h, and intracellular ROS levels are measured by flow cytometry.\nMoreover, in FIG. 6B, HNDFs are transfected with specific siRNA against Nrf2 or control siRNA. […] Intracellular ROS is measured by DCFH-DA assay.\nIntracellular ROS accumulation is determined using the dye DCFH2-DA following a procedure described earlier. Briefly, HNDFs (1×10^5 cells/well) are seeded in 6-well plates and incubated with HG in the presence or absence of test samples for 24 h. At the end of the incubation, the culture supernatant is removed and cells are washed twice with PBS. DCFH2-DA […] is mixed with 500 μL MEM and added to the culture plate. After incubation for 30 minutes, cells are collected by trypsin and the fluorescence shift is quantified using a flow cytometer (Beckman Coulter). Data are acquired and analyzed using CXP software (Beckman Coulter)."}, "SMP30": {"test_system": "SMP30", "test": "SMP30 immunofluorescence in HNDFs", "settings": "ANM 10 μM or NAC 100 μM + HG 30 mM, 72 h", "method": "In FIG. 4C, SMP30 expression provided by ANM is examined. HNDFs are incubated with ANM (10 μM) or NAC (100 μM) in the presence or absence of HG (30 mM) for 72 h. The protein expression of SMP30 is measured by immunofluorescence using SMP30 specific primary antibody and fluorescein isothiocyanate-conjugated secondary antibody (green). The cellular localization of SMP30 is photographed using a fluorescence microscope. 4′,6-diamidino-2-phenylindole (DAPI) (1 μM) is used to stain the nucleus.\nHNDFs at a density of 1×10^4 cells/well are cultured in an eight-well glass Nunc Lab-Tek chamber (ThermoFisher Scientific, Waltham, Mass.). Cells are treated with ANM or NAC in the presence or absence of HG for 2-72 h. After incubation, culture medium is removed and cells are fixed in 4% paraformaldehyde for 15 min, permeabilized with 0.1% Triton X-100 for 10 min, washed and blocked with 10% FBS in PBS, and then incubated overnight with the corresponding primary antibodies in 1.5% FBS. The cells are then incubated with the fluorescein isothiocyanate (FITC)-conjugated secondary antibody (Alexa fluor 488, ThermoFisher Scientific) for another 1 h in 6% bovine serum albumin (BSA). Next, the cells are stained with 1 μg/mL 4′,6-diamidino-2-phenylindole (DAPI, Cell Signaling Technology) for 5 min, washed with PBS, and visualized using a fluorescence microscope (Motic Electric Group) at 40× magnification."}, "[1]": {"test_system": "p38 MAPK, JNK/SAPK, AKT and ERK1/2", "test": "Western blot of MAPK and AKT activation in HNDFs", "settings": "ANM 10 μM or NAC 100 μM + HG 30 mM", "method": "Next, the possible upstream regulators of p53 activation are examined. Previous studies have shown that p38 MAPK mediated p53 activation in response to intracellular ROS generation. In FIG. 4F, this effect is further extended to its upstream regulator p38 MAPK.\n(§1) Cells are lysed by either RIPA lysis buffer or nuclear and cytoplasmic extraction reagents (Thermo Fisher Scientific). Protein concentrations are determined by Bio-Rad protein assay reagent (Bio-Rad Laboratories, Hercules, Calif.). Equal amounts of protein samples (60 μg) are separated by 7-12% SDS-PAGE and the separated proteins are transferred onto polyvinylidene […] (PVDC) membrane overnight. The transferred protein membranes are blocked with 5% non-fat dried milk for 30 min, followed by incubation with specific primary antibodies overnight, and either horseradish peroxidase-conjugated goat anti-rabbit or anti-mouse antibodies for 2 h. The blots are detected using VL Chemi-Smart 3000 (Viogene Biotek, Sunnyvale, Calif.) with the enhanced chemiluminescence (ECL) western blotting reagent (Millipore, Billerica, Mass.)."}, "HO-1 and NQO-1 [2]": {"test_system": "HO-1 and NQO-1", "test": "Western blot of HO-1 and NQO-1 in HNDFs", "settings": "ANM 10 μM or NAC 100 μM, 24 h; for HO-1 protein expression: NG and HG groups", "method": "In FIG. 5D, to determine the protein expression levels of HO-1, NQO-1 and Nrf2, HNDFs are incubated with ANM (10 μM) or NAC (100 μM) for 24 h. Total cell lysates are prepared and subjected to western blot analysis to monitor the expression levels of HO-1, NQO-1 and Nrf2.\nas §1"}, "HO-1 and NQO-1 [3]": {"test_system": "HO-1 and NQO-1", "test": "Western blot of HO-1 and NQO-1 in HUVECs", "settings": "for NQO-1 expression in HUVECs: western blot, HG", "method": "The intracellular ROS level is quantified by utilizing DCFH-DA assay. […] However, treatment of HUVECs with ANM resulted reduced ROS levels (6.1-fold), compared with HUVECs in HG that are not treated with ANM. In addition, in FIG. 9G, western blot analysis is performed to determine the protein expression levels of HO-1 and NQO-1.\nas §1"}}, "note": "Entries after “also recorded” stand apart in the source; their conditions may differ."}
{"smiles": "CC(=O)N[C@@H](CS)C(=O)O", "note": "[NAC, N-acetylcysteine, reference compound]", "values": [{"measurement": "intracellular ROS generation", "setting": "HNDFs", "value": 176.58, "unit": "%"}, {"measurement": "ROS generation, compound alone", "setting": "HNDFs", "value": "does not significantly increase"}, {"measurement": "HG-induced reduction in SMP30 (immunofluorescence)", "setting": "SMP30", "value": "partially prevented"}, {"measurement": "HG-induced JNK/SAPK activation", "setting": "[1]", "value": "significantly prevents"}, {"measurement": "HG-induced activation of p38 MAPK", "setting": "[1]", "value": "significantly prevents"}, {"measurement": "HG-mediated decrease in AKT and ERK1/2 activity (phosphorylation)", "setting": "[1]", "value": "significantly rescues; also recorded: significantly blocked"}, {"measurement": "NQO-1 protein expression", "setting": "HO-1 and NQO-1 [2]", "value": "unaffected"}, {"measurement": "HO-1 protein expression", "setting": "HO-1 and NQO-1 [2]", "value": "significantly increase"}, {"measurement": "NQO-1 expression in HUVECs", "setting": "HO-1 and NQO-1 [3]", "value": "unaffected"}]}
{"smiles": "C=C(CCC(C)C1CCC2C3=C(C(=O)C(O)C21C)C1(C)CCC(O)C(C)C1CC3)C(C)C(=O)O", "note": "(stereo not drawn) [ANM, antcin M]", "values": [{"measurement": "HG-induced ROS generation, scrambled siRNA cells", "setting": "HNDFs; ANM 10 μM + HG", "value": "significantly inhibits"}, {"measurement": "ROS generation, siNrf2 transfected cells", "setting": "HNDFs; ANM 10 μM + HG", "value": "increased ROS generation"}, {"measurement": "intracellular ROS generation", "setting": "HNDFs", "value": 200.8, "unit": "%"}, {"measurement": "ROS generation, compound alone", "setting": "HNDFs", "value": "does not significantly increase"}, {"measurement": "HG-induced reduction in SMP30 (immunofluorescence)", "setting": "SMP30", "value": "significantly prevented"}, {"measurement": "HG-induced JNK/SAPK activation", "setting": "[1]", "value": "significantly prevents"}, {"measurement": "HG-induced activation of p38 MAPK", "setting": "[1]", "value": "significantly prevents"}, {"measurement": "HG-mediated decrease in AKT and ERK1/2 activity (phosphorylation)", "setting": "[1]", "value": "significantly rescues; also recorded: significantly blocked"}, {"measurement": "NQO-1 protein expression", "setting": "HO-1 and NQO-1 [2]", "value": "unaffected"}, {"measurement": "HO-1 protein expression", "setting": "HO-1 and NQO-1 [2]", "value": "significantly increase"}, {"measurement": "HO-1 expression in HUVECs in HG", "setting": "HO-1 and NQO-1 [3]; ANM 10 μM or RES 5 μM + HG", "value": "significantly increase"}, {"measurement": "NQO-1 expression in HUVECs", "setting": "HO-1 and NQO-1 [3]", "value": "unaffected"}]}
